The source of these data is patent publication US10093683B2, “Factor XIa inhibitors” (Merck Sharp & Dohme Corp., priority 2014, dated 2018).

For experiment [1], the target named is human Factor XIa (Homo sapiens (Human), UniProt P03951). Briefly: Factor XIa Assay. Format: biochemical. To be noted: read-out: FXIa Ki. In outline:
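Purified human FXIa (40 pM final) hydrolysing fluorogenic Z-Gly-Pro-Arg-AFC (100 μM) in 50 mM HEPES pH 7.4, 150 mM NaCl, 5 mM CaCl2, 0.1% PEG 8000, at room temperature or 37° C. Initial velocities measured after enzyme–inhibitor equilibration; Ki from Vo/Vi versus [I], assuming competitive inhibition.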

The target in experiment [2] is Human plasma kallikrein (Homo sapiens (Human), UniProt P03952). Kind of experiment: Kallikrein Assay. To be noted: purified Human plasma kallikrein 0.5 nM, Acetyl-K-P-R-AFC, pH 7.4; Ki from IC50 by Cheng Prusoff. Format: biochemical. In outline:
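Purified human plasma kallikrein (0.5 nM final) with Acetyl-K-P-R-AFC substrate ([…]) in 50 mM HEPES pH 7.4, 150 mM NaCl, 5 mM CaCl2, 0.1% PEG 8000, after enzyme-inhibitor equilibration. Fluorescence (405 ex/510 em) under linear conditions; IC50 from four-parameter fit, converted to Ki by Cheng-Prusoff.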

The mark [3] stands for this setting: purified human Factor XIa 40 pM, Z-Gly-Pro-Arg-AFC 100 μM, pH 7.4.

Read-outs that look alike come from different tables or passages of the source.

human Factor XIa, sequence (P03951 388-625): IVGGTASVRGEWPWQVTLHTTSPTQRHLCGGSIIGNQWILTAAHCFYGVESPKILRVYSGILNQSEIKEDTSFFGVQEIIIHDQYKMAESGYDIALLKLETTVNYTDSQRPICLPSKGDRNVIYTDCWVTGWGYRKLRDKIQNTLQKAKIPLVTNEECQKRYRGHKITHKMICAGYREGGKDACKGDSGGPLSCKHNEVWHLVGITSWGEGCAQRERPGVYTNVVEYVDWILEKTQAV
human Factor XIa, sequence (P03951 19-387 partner): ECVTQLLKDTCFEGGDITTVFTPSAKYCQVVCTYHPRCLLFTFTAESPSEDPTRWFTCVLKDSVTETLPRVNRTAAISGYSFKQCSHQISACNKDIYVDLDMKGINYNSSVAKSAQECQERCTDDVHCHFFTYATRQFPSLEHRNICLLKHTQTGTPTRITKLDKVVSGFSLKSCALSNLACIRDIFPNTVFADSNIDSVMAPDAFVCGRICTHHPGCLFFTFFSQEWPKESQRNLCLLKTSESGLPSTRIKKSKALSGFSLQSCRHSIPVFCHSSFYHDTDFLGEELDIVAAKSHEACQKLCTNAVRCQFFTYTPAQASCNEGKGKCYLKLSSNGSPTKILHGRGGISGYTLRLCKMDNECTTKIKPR
Human plasma kallikrein, sequence (P03952 391-638): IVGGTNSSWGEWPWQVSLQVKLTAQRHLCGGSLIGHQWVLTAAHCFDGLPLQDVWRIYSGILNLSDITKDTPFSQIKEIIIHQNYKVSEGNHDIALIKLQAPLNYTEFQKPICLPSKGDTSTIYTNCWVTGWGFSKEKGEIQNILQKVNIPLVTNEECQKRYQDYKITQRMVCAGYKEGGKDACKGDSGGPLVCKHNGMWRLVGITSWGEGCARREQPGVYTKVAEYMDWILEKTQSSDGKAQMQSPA
Human plasma kallikrein, sequence (P03952 20-390 partner): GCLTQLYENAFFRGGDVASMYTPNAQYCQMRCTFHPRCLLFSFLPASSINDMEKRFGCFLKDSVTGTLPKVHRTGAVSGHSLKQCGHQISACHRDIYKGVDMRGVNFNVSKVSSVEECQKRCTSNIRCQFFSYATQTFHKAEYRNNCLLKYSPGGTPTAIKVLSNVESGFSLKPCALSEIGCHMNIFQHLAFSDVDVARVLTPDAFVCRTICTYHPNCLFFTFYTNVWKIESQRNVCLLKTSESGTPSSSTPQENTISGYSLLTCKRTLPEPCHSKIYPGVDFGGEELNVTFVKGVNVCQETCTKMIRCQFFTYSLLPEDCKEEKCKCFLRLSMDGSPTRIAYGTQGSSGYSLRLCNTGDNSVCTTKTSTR

Broadly, the Ki is the dissociation constant of the complex between target and ligand, obtained from inhibition or displacement. Consider `COC(=O)Nc1ccc(C(=O)N[C@@H](CC(F)F)C(=O)N2CCC[C@@]3(C2)OC(=O)Nc2ccc(Cl)c(F)c23)cc1` [Example 104, methyl (4-(((S)-1-((R)-6-chloro-5-fluoro-2-oxo-1,2-dihydrospiro[benzo[d][1,3]oxazine-4,3′-piperidin]-1′-yl)-4,4-difluoro-1-oxobutan-2-yl)carbamoyl)phenyl)carbamate], for which the Ki in experiment [1] (setting [3]) amounted to 15 nM; in experiment [2] it was 5.28 nM.
For `COC(=O)Nc1ccc(C(=O)N[C@@H](CCF)C(=O)N2CCC[C@@]3(C2)OC(=O)Nc2ccc(Cl)c(F)c23)cc1` [Example 105, methyl (4-(((S)-1-((R)-6-chloro-5-fluoro-2-oxo-1,2-dihydrospiro[benzo[d][1,3]oxazine-4,3′-piperidin]-1′-yl)-4-fluoro-1-oxobutan-2-yl)carbamoyl)phenyl)carbamate], the Ki in experiment [1] (setting [3]) is 9.99 nM; in experiment [2], 3.04 nM.
As for `COC(=O)Nc1ccc(C(=O)N[C@@H](CC(C)O)C(=O)N2CCC3(C2)OC(=O)Nc2ccc(Cl)cc23)cc1` (stereo partly drawn) [Example 110, methyl (4-(((2S)-1-((R)-6-chloro-2-oxo-1,2-dihydrospiro[benzo[d][1,3]oxazine-4,3′-pyrrolidin]-1′-yl)-4-hydroxy-1-oxopentan-2-yl)carbamoyl)phenyl)carbamate], the Ki in experiment [1] (setting [3]) is 52 nM; in experiment [2], 147 nM.
The like results for `COC(=O)Nc1ccc(C(=O)N[C@@H](CC(C)(C)O)C(=O)N2CC[C@@]3(C2)OC(=O)Nc2ccc(Cl)cc23)cc1` [Example 111, methyl (4-(((S)-1-((R)-6-chloro-2-oxo-1,2-dihydrospiro[benzo[d][1,3]oxazine-4,3′-pyrrolidin]-1′-yl)-4-hydroxy-4-methyl-1-oxopentan-2-yl)carbamoyl)phenyl)carbamate] were, in that order, 12 nM and 76 nM.
The like results for `COC(=O)Nc1ccc(C(=O)N[C@@H](CC(C)(C)OC)C(=O)N2CCC[C@@]3(C2)OC(=O)Nc2ccc(Cl)c(F)c23)cc1` [Example 119, methyl (4-(((2S)-1-(6-chloro-5-fluoro-2-oxo-1,2-dihydrospiro[benzo[d][1,3]oxazine-4,3′-piperidin]-1′-yl)-4-methoxy-4-methyl-1-oxopentan-2-yl)carbamoyl)phenyl)carbamate] were, in that order, 10.2 nM and 4.92 nM.
For `O=C1Nc2ccc(Cl)c(F)c2[C@@]2(CCCN(C(=O)C(Cc3ccccc3)c3ncc(-c4ccc(C(=O)O)s4)[nH]3)C2)O1` (stereo partly drawn) [Example 123, 5-(2-(1-((R)-6-chloro-5-fluoro-2-oxo-1,2-dihydrospiro[benzo[d][1,3]oxazine-4,3′-piperidin]-1′-yl)-1-oxo-3-phenylpropan-2-yl)-1H-imidazol-5-yl)thiophene-2-carboxylic acid], the Ki in experiment [1] (setting [3]) was found to be 15.1 nM; in experiment [2], 4.65 nM.
`COC(=O)Nc1cccc(C(=O)N[C@@H](Cc2ccccc2)C(=O)N2CCC3(C2)OC(=O)Nc2ccc(Cl)cc23)c1` (stereo partly drawn) [Example 143, methyl (3-(((2S)-1-(6-chloro-2-oxo-1,2-dihydrospiro[benzo[d][1,3]oxazine-4,3′-pyrrolidin]-1′-yl)-1-oxo-3-phenylpropan-2-yl)carbamoyl)phenyl)carbamate]: the values for the Ki in experiment [1] and in experiment [2] were 1250 nM and 2.63 nM, respectively.
In the case of `Cc1ncc(C(=O)N[C@@H](Cc2ccccc2)C(=O)N2CCC3(C2)OC(=O)Nc2ccc(Cl)cc23)cn1` (stereo partly drawn) [Example 144], the Ki came out at 5000 nM in experiment [1] and 7.72 nM in experiment [2].
As to `COCCOC(=O)Nc1ccc(C(=O)N[C@@H](Cc2ccccc2)C(=O)N2CCC3(C2)OC(=O)Nc2ccc(Cl)cc23)cc1` (stereo partly drawn) [Example 164, 2-methoxyethyl (4-(((2S)-1-(6-chloro-2-oxo-1,2-dihydrospiro[benzo[d][1,3]oxazine-4,3′-pyrrolidin]-1′-yl)-1-oxo-3-phenylpropan-2-yl)carbamoyl)phenyl)carbamate], the Ki in experiment [1] was 9.4 nM; in experiment [2] it was 36 nM.
Regarding `O=C1CSc2cc(C(=O)N[C@@H](Cc3ccccc3)C(=O)N3CCC4(C3)OC(=O)Nc3ccc(Cl)cc34)ccc2N1` (stereo partly drawn) [Example 165], the figures for the Ki in experiment [1] and in experiment [2] were 14.6 nM and 27.5 nM, respectively.
For the compound `O=C1COc2cc(C(=O)N[C@@H](Cc3ccccc3)C(=O)N3CCC4(C3)OC(=O)Nc3ccc(Cl)cc34)ccc2N1` (stereo partly drawn) [Example 171], the inhibitory constant (Ki) in experiment [1] came out at 21.8 nM; in experiment [2] it was 58 nM.
In the case of `Nc1nc2ccc(C(=O)N[C@@H](Cc3ccccc3)C(=O)N3CCC4(C3)OC(=O)Nc3ccc(Cl)cc34)cc2s1` (stereo partly drawn) [Example 181], the values for the Ki in experiment [1] and in experiment [2] were 18.7 nM and 50.7 nM, respectively.
`O=C1Nc2ccc(Cl)cc2C2(CCN(C(=O)[C@H](Cc3ccccc3)NC(=O)c3ccc(Nc4ncc[nH]4)cc3)C2)O1` (stereo partly drawn) [Example 188]: the figures for the Ki in experiment [1] and in experiment [2] were 42 nM and 155 nM, respectively.
The like results for `CNC(=O)Nc1ccc(C(=O)N[C@@H](Cc2ccccc2)C(=O)N2CCC3(C2)OC(=O)Nc2ccc(Cl)cc23)cc1` (stereo partly drawn) [Example 189, N-((2S)-1-(6-chloro-2-oxo-1,2-dihydrospiro[benzo[d][1,3]oxazine-4,3′-pyrrolidin]-1′-yl)-1-oxo-3-phenylpropan-2-yl)-4-(3-methylureido)benzamide] were, in that order, 17.6 nM and 51.3 nM.
For `O=C(Nc1ccc(C(=O)N[C@@H](Cc2ccccc2)C(=O)N2CCC3(C2)OC(=O)Nc2ccc(Cl)cc23)cc1)OCCN1CCOCC1` (stereo partly drawn) [Example 191, 2-morpholinoethyl (4-(((2S)-1-(6-chloro-2-oxo-1,2-dihydrospiro[benzo[d][1,3]oxazine-4,3′-pyrrolidin]-1′-yl)-1-oxo-3-phenylpropan-2-yl)carbamoyl)phenyl)carbamate], in that order: 33.5 nM and 123 nM.
On to `O=C(Nc1ccc(C(=O)N[C@@H](Cc2ccccc2)C(=O)N2CCC3(C2)OC(=O)Nc2ccc(Cl)cc23)cc1)OC[C@@H]1CCCO1` (stereo partly drawn) [Example 194, ((S)-tetrahydrofuran-2-yl)methyl (4-(((2S)-1-(6-chloro-2-oxo-1,2-dihydrospiro[benzo[d][1,3]oxazine-4,3′-pyrrolidin]-1′-yl)-1-oxo-3-phenylpropan-2-yl)carbamoyl)phenyl)carbamate], for which the Ki in experiment [1] is 5.48 nM; in experiment [2] it was 30.9 nM.
As to `Nc1n[nH]c2cc(C(=O)N[C@@H](Cc3ccccc3)C(=O)N3CC[C@@]4(C3)OC(=O)Nc3ccc(Cl)c(F)c34)ccc12` [Example 195], the Ki in experiment [1] was 1 nM; in experiment [2] it was 1.9 nM.
`Nc1n[nH]c2cc(C(=O)N[C@@H](Cc3ccccc3)C(=O)N3CCC[C@@]4(C3)OC(=O)Nc3ccc(Cl)cc34)ccc12` [Example 197]: the Ki in experiment [1] was 0.62 nM; in experiment [2], 1.3 nM.
Consider `O=C1Nc2ccc(Cl)cc2[C@@]2(CCN(C(=O)[C@H](Cc3ccccc3)NC(=O)c3ccc4[nH]c(=O)c(=O)[nH]c4c3)C2)O1` [Example 198], for which the figures for the Ki in experiment [1] and in experiment [2] were 2.77 nM and 30.1 nM, respectively.
Consider `O=C1Nc2ccc(Cl)cc2[C@@]2(CCCN(C(=O)[C@H](Cc3ccccc3)NC(=O)c3ccc4[nH]c(=O)cc(O)c4c3)C2)O1` [Example 199], for which the Ki in experiment [1] and in experiment [2] was 0.6 nM throughout.
Consider `Nc1n[nH]c2cc(C(=O)N[C@@H](CC3CC3)C(=O)N3CCC[C@@]4(C3)OC(=O)Nc3ccc(Cl)cc34)ccc12` [Example 200], for which the Ki was determined as 4.4 nM in experiment [1] and 1 nM in experiment [2].
Regarding `O=C1Nc2ccc(Cl)cc2[C@@]2(CCCN(C(=O)[C@H](Cc3ccccc3)NC(=O)c3ccc(C(=O)O)s3)C2)O1` [Example 203], the Ki in experiment [1] is 10.3 nM; in experiment [2], 2.1 nM.
Turning to `CNc1cc(C(=O)N[C@@H](Cc2ccccc2)C(=O)N2CCC[C@@]3(C2)OC(=O)Nc2ccc(Cl)cc23)ccn1` [Example 206], the Ki in experiment [1] was 14.5 nM; in experiment [2] it was 1.7 nM.
In the case of `Nc1ccc(C(=O)N[C@@H](Cc2ccc(F)cc2)C(=O)N2CCC[C@@]3(C2)OC(=O)Nc2ccc(Cl)cc23)cc1C(=O)O` [Example 208, 2-amino-5-(((S)-1-((R)-6-chloro-2-oxo-1,2-dihydrospiro[benzo[d][1,3]oxazine-4,3′-piperidin]-1′-yl)-3-(4-fluorophenyl)-1-oxopropan-2-yl)carbamoyl)benzoic acid], the Ki in experiment [1] was 1.63 nM; in experiment [2], 1.95 nM.
Consider `O=C1Nc2ccc(Cl)c(F)c2[C@@]2(CCCN(C(=O)[C@H](Cc3ccccc3)NC(=O)c3ccc4[nH]c(=O)cc(O)c4c3)C2)O1` [Example 209], for which the results for the Ki in experiment [1] and in experiment [2] were 0.11 nM and 0.33 nM, respectively.
With `O=C1Nc2ccc(Cl)c(F)c2[C@@]2(CCCN(C(=O)[C@H](CC3CC3)NC(=O)c3ccc4[nH]c(=O)[nH]c4c3)C2)O1` [Example 213], the Ki in experiment [1] came to 10.4 nM; in experiment [2] it was 0.54 nM.
Turning to `O=C1Nc2ccc(Cl)c(F)c2[C@@]2(CCCN(C(=O)[C@H](CC3CC3)NC(=O)c3ccc4[nH]nc(O)c4c3)C2)O1` [Example 214], the Ki is 0.7 nM in experiment [1] and 1.4 nM in experiment [2].
Regarding `O=C1Nc2ccc(Cl)c(F)c2[C@@]2(CCCN(C(=O)[C@H](CC3CC3)NC(=O)c3ccc4c(O)n[nH]c4c3)C2)O1` [Example 215], the results for the Ki in experiment [1] and in experiment [2] were 13.8 nM and 2.6 nM, respectively.
For `O=C1Nc2ccc(Cl)c(F)c2[C@@]2(CCCN(C(=O)[C@H](CC3CC3)NC(=O)c3cc4cc(O)ccc4[nH]3)C2)O1` [Example 216], in that order: 37.6 nM and 1.7 nM.
For `Nc1noc2cc(C(=O)N[C@@H](Cc3ccccc3)C(=O)N3CC[C@@]4(C3)OC(=O)Nc3ccc(Cl)cc34)ccc12` [Example 217], in that order: 2.3 nM and 3.2 nM.
